# Measurements as given in patent US20080269202A1, “Novel 2,3-benzodiazepine derivatives and their use as antipsychotic agents” (Teva Pharmaceutical Industries Ltd., priority 2007, published 2008).
# Where a name gives a salt, the structure may show the parent alone.
row,SMILES,melting point [°C]
1,CNC(=O)N1N=C(c2ccccc2[N+](=O)[O-])c2cc(OC)c(OC)cc2CC1C (stereo not shown),174 to 176
2,CNC(=O)N1N=C(c2cccc(Cl)c2)c2cc(OC)c(OC)cc2CC1C (stereo not shown),90 to 91
3,CNC(=O)N1N=C(c2cc(C)c([N+](=O)[O-])c(C)c2)c2cc(OC)c(OC)cc2CC1C (stereo not shown) [Example 77],158 to 160
4,COc1cc2c(cc1OC)C(c1ccc(N)c(C)c1)=NN(c1noc(C)n1)[C@H](C)C2 [Example 106],105 to 108
5,COc1cc2c(cc1OC)C(c1cccc(Cl)c1)=NN(c1nc(C)c(C)s1)C(C)C2 (stereo not shown) (as salt: HCl) [Example 11],174 to 176
6,COc1cc2c(cc1OC)C(c1ccc([N+](=O)[O-])c(C)c1)=NN(C1=NOCS1)C(C)C2 (stereo not shown) [Example 35],180 to 182
7,COc1cc2c(cc1OC)C(c1ccc([N+](=O)[O-])c(Cl)c1)=NN(c1nncs1)C(C)C2 (stereo not shown) [Example 21],214 to 215
8,COc1cc2c(cc1OC)C(c1ccc(N)cc1)=NN(C1=NC(=O)CS1)C(C)C2 (racemic) [Example 142],166 to 168
9,COc1cc2c(cc1OC)C(c1ccc(N)cc1)=NN(c1nnco1)C(C)C2 (racemic) [Example 150],100 to 105
10,CCc1nnc(N2N=C(c3ccc(N)cc3)c3cc(OC)c(OC)cc3CC2C)s1 (racemic) [Example 146],208 to 209
11,COc1cc2c(cc1OC)C(c1ccc(N)cc1)=NN(c1ncon1)[C@H](C)C2 [Example 103],239 to 242
12,COc1cc2c(cc1OC)C(c1ccc(NC(C)=O)cc1)=NN(c1nncs1)C(C)C2 (stereo not shown) [Example 187],150 to 151
13,CNC(=O)N1N=C(c2ccc([N+](=O)[O-])c(Cl)c2)c2cc(OC)c(OC)cc2CC1C (stereo not shown) [76],195 to 197
14,COc1cc2c(cc1OC)C(c1ccc(N)cc1)=NN(c1nncs1)[C@@H](C)C2 [Example 109],160 to 162
15,CNC(=O)Nc1ccc(C2=NN(c3nncs3)C(C)Cc3cc(OC)c(OC)cc32)cc1 (stereo not shown) [Example 191],160 to 162
16,COc1cc2c(cc1OC)C(c1ccc(N)c(C)c1)=NN(C(=O)NC(C)C)[C@H](C)C2,115 to 117
17,COc1cc2c(cc1OC)C(c1ccc(Cl)cc1)=NN(c1nncs1)C(C)C2 (stereo not shown) [Example 24],203 to 204
18,COc1cc2c(cc1OC)C(c1ccc(N)cc1)=NN(C1=NC(=O)C(C)S1)C(C)C2 (racemic) [Example 143],184 to 188

row,SMILES,melting point [°C]
1,COc1cc2c(cc1OC)C(c1ccc(N)cc1)=NN(c1nc(C)n(C)n1)C(C)C2 (racemic) [Example 166],243 to 246
2,COc1cc2c(cc1OC)C(c1ccc(N)c(Cl)c1)=NN(c1nccs1)[C@H](C)C2 [Example 115],116 to 117
3,CNC(=O)N1N=C(c2ccc([N+](=O)[O-])c(Cl)c2)c2cc(OC)c(OC)cc2CC1C (stereo not shown) [75],194 to 195
4,COc1cc2c(cc1OC)C(c1ccc([N+](=O)[O-])c(C)c1)=NN(c1nccs1)C(C)C2 (stereo not shown) [Example 3],145 to 147
5,COc1cc2c(cc1OC)C(c1ccc(N)cc1)=NN(C(=O)N1CCOCC1)C(C)C2 (racemic) [Example 177],124 to 127
6,COc1cc2c(cc1OC)C(c1ccc(N)cc1)=NN(c1ncon1)C(C)C2 (racemic) [Example 155],227 to 229
7,CONC(=O)N1N=C(c2ccc(N)cc2)c2cc(OC)c(OC)cc2CC1C (racemic) [Example 179],173 to 174
8,COc1cc2c(cc1OC)C(c1ccc(N)cc1)=NN(C(=O)NC(C)C)C(C)C2 (racemic),109 to 111
9,COc1cc2c(cc1OC)C(c1ccc(N)cc1)=NN(c1ncn[nH]1)C(C)C2 (racemic) [Example 162],152 to 155
10,CNC(=O)N1N=C(c2ccccc2)c2cc(OC)c(OC)cc2CC1C (stereo not shown),86 to 88
11,COc1cc2c(cc1OC)C(c1ccc(N)c(C)c1)=NN(C(=O)NC1CC1)[C@H](C)C2,112 to 114
12,COc1cc2c(cc1OC)C(c1ccc([N+](=O)[O-])c(Cl)c1)=NN(c1ncon1)C(C)C2 (stereo not shown) [Example 46],206 to 208
13,COc1cc2c(cc1OC)C(c1ccc(N)cc1)=NN(C(=O)NC1CC1)C(C)C2 (racemic),120 to 123
14,COc1cc2c(cc1OC)C(c1ccc([N+](=O)[O-])cc1)=NN(c1nc(C)c(C)s1)C(C)C2 (stereo not shown) [Example 9],190 to 192
15,CCNC(=O)N1N=C(c2ccc([N+](=O)[O-])cc2)c2cc(OC)c(OC)cc2CC1C (stereo not shown) [78],206 to 208
16,COc1cc2c(cc1OC)C(c1ccc(N)c(C)c1)=NN(c1ncon1)[C@@H](C)C2 [Example 105],136 to 138
17,COc1cc2c(cc1OC)C(c1ccc(N)cc1)=NN(C1=NCCS1)C(C)C2 (racemic) [Example 141],121 to 123
18,COc1cc2c(cc1OC)C(c1ccc(N)cc1)=NN(C1=NOCS1)[C@@H](C)C2 [Example 119],134 to 135

# The remaining lines, values ahead:
row,melting point [°C],SMILES
1,164 to 167,COc1cc2c(cc1OC)C(c1ccc(N)cc1)=NN(c1nc(C)n[nH]1)C(C)C2 (racemic) [Example 163]
2,210 to 212,COc1cc2c(cc1OC)C(c1ccc(Cl)cc1)=NN(c1ncon1)C(C)C2 (stereo not shown) [Example 49]
3,195 to 196,COc1cc2c(cc1OC)C(c1ccc([N+](=O)[O-])c(C)c1)=NN(c1nncs1)C(C)C2 (stereo not shown) [Example 19]
4,186 to 191,COc1cc2c(cc1OC)C(c1ccc(F)cc1)=NN(C1=NOCS1)C(C)C2 (stereo not shown) [Example 36]
5,206 to 208,COc1cc2c(cc1OC)C(c1ccc([N+](=O)[O-])c(C)c1)=NN(c1noc(C)n1)C(C)C2 (stereo not shown) [Example 47]
6,149 to 150,CCNC(=O)N1N=C(c2ccc([N+](=O)[O-])c(C)c2)c2cc(OC)c(OC)cc2CC1C (stereo not shown) [Example 80]
7,92 to 96,COc1cc2c(cc1OC)C(c1ccc([N+](=O)[O-])cc1)=NN(C(=O)N(C)C)C(C)C2 (stereo not shown)
8,164 to 166,CNC(=O)N1N=C(c2ccc(Cl)cc2)c2cc(OC)c(OC)cc2CC1C (stereo not shown)
9,108 to 110,COc1cc2c(cc1OC)C(c1ccc(N)c(C)c1)=NN(c1nncs1)C(C)C2 (racemic) [Example 147]
10,229 to 231,COc1cc2c(cc1OC)C(c1ccc(NC(C)=O)c(C)c1)=NN(c1nccs1)[C@H](C)C2 [Example 185]
11,227 to 230,COc1cc2c(cc1OC)C(c1ccc([N+](=O)[O-])c(Cl)c1)=NN(c1ncon1)C(C)C2 (stereo not shown) [Example 45]
12,158 to 162,CCOc1cc2c(cc1OCC)C(c1ccc([N+](=O)[O-])cc1)=NN(c1ncon1)C(C)C2 (stereo not shown) [Example 52]
13,185 to 186,CNC(=O)N1N=C(c2ccc(OC)c(OC)c2)c2cc(OC)c(OC)cc2CC1C (stereo not shown)
14,83 to 85,CNC(=O)N1N=C(c2cccc([N+](=O)[O-])c2)c2cc(OC)c(OC)cc2CC1C (stereo not shown)
15,228 to 229,COc1cc2c(cc1OC)C(c1ccc([N+](=O)[O-])cc1)=NN(c1nnc(C)s1)C(C)C2 (stereo not shown) [Example 27]
16,119 to 120,CNC(=O)N1N=C(c2ccc(N)c(Cl)c2)c2cc(OC)c(OC)cc2CC1C (racemic)
